Assays:
[1] = target: T1, Recombinant IKKα (Homo sapiens, UniProt O15111); experiment: DELFIA IKKα kinase assay (apparent Ki, Cheng-Prusoff); format: biochemical
T1 construct: purchased Millipore, Dundee, UK
T1 sequence (O15111 1-745): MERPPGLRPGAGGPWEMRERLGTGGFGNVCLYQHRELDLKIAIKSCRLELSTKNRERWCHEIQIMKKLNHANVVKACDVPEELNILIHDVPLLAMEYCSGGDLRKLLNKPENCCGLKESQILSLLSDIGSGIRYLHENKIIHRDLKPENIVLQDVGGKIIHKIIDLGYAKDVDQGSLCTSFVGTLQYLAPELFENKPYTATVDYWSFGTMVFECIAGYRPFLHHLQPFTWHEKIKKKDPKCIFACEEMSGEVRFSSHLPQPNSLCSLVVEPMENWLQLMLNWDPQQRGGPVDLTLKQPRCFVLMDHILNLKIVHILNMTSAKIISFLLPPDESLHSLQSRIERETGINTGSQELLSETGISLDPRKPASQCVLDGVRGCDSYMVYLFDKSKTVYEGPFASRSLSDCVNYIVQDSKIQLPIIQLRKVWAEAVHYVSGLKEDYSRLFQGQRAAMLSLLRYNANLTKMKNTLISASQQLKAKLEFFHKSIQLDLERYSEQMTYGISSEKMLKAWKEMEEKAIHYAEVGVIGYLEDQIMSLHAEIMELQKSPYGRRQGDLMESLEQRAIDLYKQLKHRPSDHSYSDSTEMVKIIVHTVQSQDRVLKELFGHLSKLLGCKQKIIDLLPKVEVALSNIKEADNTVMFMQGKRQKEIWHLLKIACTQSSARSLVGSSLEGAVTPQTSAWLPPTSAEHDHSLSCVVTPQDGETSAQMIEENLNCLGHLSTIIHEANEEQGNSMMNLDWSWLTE
Summary of the method: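 Recombinant IKKα or IKKβ (37 nM) with 0.375 μM biotinylated IκB-α (Ser32) peptide and 40 μM ATP in 40 mM Tris-HCl pH 7.5, 20 mM MgCl2, 60 min at 30° C. Phospho-substrate captured on streptavidin and detected by anti-phospho-IκB-α plus europium anti-mouse IgG time-resolved fluorescence; apparent Ki via Cheng-Prusoff.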

[2] = target: T2, CHUK (IKK alpha) (Homo sapiens, UniProt O15111); experiment: Adapta IKKα assay (TR-FRET ADP formation, Life Technologies); format: biochemical
T2 construct: purchased Life Technologies (assay performed by the vendor)
T2 sequence (O15111 1-745): T1 sequence (O15111 1-745)
Procedure: IKKα and IKKβ inhibitory activity was determined using three different assays: a dissociation enhanced ligand fluorescent immunoassay (DELFIA) based on the protocol of HTScan™ IKKβ Kinase Assay (Cell Signaling Technology, USA); an Adapta IKKα assay (performed by Life Technologies); a Z′-LYTE™ IKKβ assay (performed by Life Technologies).
The reaction was performed in low-volume white 384-well plates (Corning model 4512).
The test compounds were screened in 1% DMSO (final) in the well. For 10 point titrations, 3-fold serial dilutions were conducted from the starting concentration of 50 mM.
The 2× CHUK (IKK alpha) kinase was prepared in 50 mM HEPES pH 7.5, 0.01% BRIJ-35, 10 mM MgCl2 and 1 mM EGTA. The final 10 μL kinase mixture consisted of 50-250 ng CHUK (IKK alpha) in 32.5 mM HEPES pH 7.5, 0.005% BRIJ-35, 5 mM MgCl2 and 0.5 mM EGTA. No substrate was required, as the assay measures the ability of a compound to inhibit the kinase's intrinsic ATPase activity.
5 μL of 2× Kinase mixture was incubated with 2.5 μL of ATP solution diluted to a 4×working concentration in water, in the presence of 100 nL of 100× test compound in 100% DMSO and 2.4 μL of 30 mM HEPES buffer.
After 30-second plate shake and 1-minute centrifuge at 1000×g, the resulting kinase reaction was allowed to incubate for 1 hour at room temperature before 5 μL of Detection Mix was added.
The Detection Mix, previously prepared in TR-FRET Dilution Buffer, consisted of EDTA (30 mM), Eu-anti-ADP antibody (6 nM) and an Alexa Fluor™ 647 labelled ADP tracer. The Detection Mix contained the EC60 concentration of tracer for 5-150 μM ATP.
After 30-second plate shake and 1-minute centrifuge at 1000×g, the Detection Mix was allowed to equilibrate at room temperature for 1 hour. Then the plate was read using a fluorescence plate reader configured for Adapta™ TR-FRET and the data analysed.
ADP formation was determined by calculating the emission ratio from the assay well. Therefore, the emission ratio was calculated by dividing the intensity of the tracer (acceptor) emission by the intensity of the Eu (donor) emission at 615 nm as shown in the equation below.
The IKKα and IKKb figures quoted in italicised form are from the Adapta assay described above.

[3] = DELFIA assay (first line of an example)
[4] = Adapta assay (second line of an example)
[5] = non-italicised figure: DELFIA assay

Row | SMILES | Ki [1, 3] [nM] | IC50 [2, 4] [nM] | Ki [1, 5] [nM] | IC50 ([2]; Adapta assay) [nM]
1 | CC(C)(O)C#Cc1cc(-c2ccnc3[nH]ccc23)cc2c(N)n[nH]c12 [Example 206, 4-(3-Amino-5-(1H-pyrrolo[2,3-b]pyridin-4-yl)-1H-indazol-7-yl)-2-methylbut-3-yn-2-ol] | 81 | 9 |  | 
2 | Nc1n[nH]c2c(C#CCCCN3CCCCC3)cc(-c3ccnc4[nH]ccc34)cc12 [Example 212, 7-(5-(Piperidin-1-yl)pent-1-yn-1-yl)-5-(1H-pyrrolo[2,3-b]pyridin-4-yl)-1H-indazol-3-amine] | 30 | 12 |  | 
3 | Nc1n[nH]c2c(C#CC3CCCC3)cc(-c3ccnc4[nH]ccc34)cc12 [Example 203, 7-(Cyclopentylethynyl)-5-(1H-pyrrolo[2,3-b]pyridin-4-yl)-1H-indazol-3-amine] | 26 | 16 |  | 
4 | CC(C)(C)Cc1cc2c(-c3ccc4[nH]nc(N)c4c3)ccnc2[nH]1 [Example 220, 5-(2-Neopentyl-1H-pyrrolo[2,3-b]pyridin-4-yl)-1H-indazol-3-amine] | 58 | 2 |  | 
5 | CC(C)(O)C#Cc1cc(-c2ccnc(N)c2)cc2c(N)n[nH]c12 [Example 140, 4-(3-Amino-5-(2-aminopyridin-4-yl)-1H-indazol-7-yl)-2-methylbut-3-yn-2-ol] |  |  | 281 | 39
6 | Nc1nccc(-c2ccc3[nH]nc(N)c3c2)c1C#CC1CCCCC1 [Example 74, 5-(2-Amino-3-(cyclohexylethynyl)pyridine-4-yl)-1H-indazol-3-amine] |  |  | 12 | 3
7 | CC(C)(C)C#Cc1c(-c2ccc3[nH]nc(N)c3c2)ccnc1N [Example 72, 5-(2-Amino-3-(3,3-dimethylbut-1-yn-1-yl)pyridine-4-yl)-1H-indazol-3-amine] |  |  | 6 | 1
8 | Nc1n[nH]c2ccc(-c3ccnc4[nH]c(CC5CCCCC5)cc34)cc12 [Example 221, 5-(2-(Cyclohexylmethyl)-1H-pyrrolo[2,3-b]pyridin-4-yl)-1H-indazol-3-amine] | 38 | 8 |  | 
9 | Nc1nccc(-c2ccc3[nH]nc(N)c3c2)c1C#CCCN1CCCCC1 [Example 93, 5-(2-Amino-3-(4-(piperidin-1-yl)but-1-yn-1-yl)pyridin-4-yl)-1H-indazol-3-amine] |  |  | 32 | 7
10 | Nc1nccc(-c2ccc3[nH]nc(N)c3c2)c1C#CCCC(=O)N1CCOCC1 [Example 99, 5-(2-Amino-4-(3-amino-1H-indazol-5-yl)pyridine-3-yl)-1-morpholinopent-4-yn-1-one] |  |  | 15 | 3
11 | Nc1n[nH]c2ccc(-c3ccnc4[nH]c(C5CCCCC5)cc34)cc12 [Example 219, 5-(2-Cyclohexyl-1H-pyrrolo[2,3-b]pyridin-4-yl)-1H-indazol-3-amine] | 42 | 14 |  | 
12 | Nc1nccc(-c2ccc3[nH]nc(N)c3c2)c1C#CCCCN1CCCCC1 [Example 95, 5-(2-Amino-3-(5-(piperidin-1-yl)pent-1-yn-1-yl)pyridin-4-yl)-1H-indazol-3-amine] |  |  | 91 | 12
13 | Nc1cc(-c2cc(-c3ccoc3)c3[nH]nc(N)c3c2)ccn1 [Example 129, 5-(2-Aminopyridin-4-yl)-7-(furan-3-yl)-1H-indazol-3-amine] |  |  | 10 | 5
14 | Nc1n[nH]c2c(C#CC3CC3)cc(-c3ccnc4[nH]ccc34)cc12 [Example 202, 7-(Cyclopropylethynyl)-5-(1H-pyrrolo[2,3-b]pyridin-4-yl)-1H-indazol-3-amine] | 13 | 2 |  | 
15 | Nc1n[nH]c2ccc(-c3ccnc4[nH]c(CO)cc34)cc12 [Example 224] | 5 | 1 |  | 
16 | Nc1nccc(-c2ccc3[nH]nc(N)c3c2)c1C#CC1(O)CCCCC1 [Example 90, 1-((2-Amino-4-(3-amino-1H-indazol-5-yl)pyridine-3-yl)ethynyl)cyclohexan-1-ol] |  |  | 36 | 3
17 | Nc1nccc(-c2ccc3[nH]nc(N)c3c2)c1C#CCCCN1CCOCC1 [Example 96, 5-(2-Amino-3-(5-morpholinopent-1-yn-1-yl)pyridin-4-yl)-1H-indazol-3-amine] |  |  | 350 | 21
18 | CC(C)(N)C#Cc1c(-c2ccc3[nH]nc(N)c3c2)ccnc1N [Example 92, 5-(2-Amino-3-(3-amino-3-methylbut-1-yn-1-yl)pyridin-4-yl)-1H-indazol-3-amine] |  |  | 7 | 6

Further lines, results first:

Row | Ki [1, 3] [nM] | IC50 [2, 4] [nM] | Ki [1, 5] [nM] | IC50 ([2]; Adapta assay) [nM] | SMILES
19 | 11 | 1 |  |  | Nc1n[nH]c2ccc(-c3ccnc4[nH]c(CCCN5CCOCC5)cc34)cc12 [Example 271, 5-(2-(3-Morpholinopropyl)-1H-pyrrolo[2,3-b]pyridin-4-yl)-1H-indazlo-3-amine]
20 | 11 | 4 |  |  | Nc1n[nH]c2ccc(-c3ccnc4[nH]c(CCCN5CCCCC5)cc34)cc12 [Example 269, 5-(2-(3-(Piperidin-1-yl)propyl)-1H-pyrrolo[2,3-b]pyridin-4-yl)-1H-indazol-3-amine]
21 | 12 | 1 |  |  | Nc1n[nH]c2ccc(-c3ccnc4[nH]c(C5CCOCC5)cc34)cc12 [Example 228, 5-(2-(tetrahydro-2H-pyran-4-yl)-1H-pyrrolo[2,3-b]pyridin-4-yl)-1H-indazol-3-amine]
22 | 62 | 14 |  |  | CN1CCN(Cc2cc3c(-c4ccc5[nH]nc(N)c5c4)ccnc3[nH]2)CC1 [Example 263, 5-(2-((4-Methylpiperazin-1-yl)methyl)-1H-pyrrolo[2,3-b]pyridine-4-yl)-1H-indazol-3-amine]
23 | 46 | 11 |  |  | CN1CCCN(Cc2cc3c(-c4ccc5[nH]nc(N)c5c4)ccnc3[nH]2)CC1 [Example 266, 5-(2-((4-Methyl-1,4-diazepan-1-yl)methyl)-1H-pyrrolo[2,3-b]pyridin-4-yl)-1H-indazol-3-amine]
24 | 72 | 13 |  |  | CN1CCN(C(=O)c2cc3c(-c4ccc5[nH]nc(N)c5c4)ccnc3[nH]2)CC1 [Example 243, (4-(3-Amino-1H-indazol-5-yl)-1H-pyrrolo[2,3-b]pyridin-2-yl)(4-methylpiperazin-1-yl)methanone]
25 | 53 | 8 |  |  | Nc1n[nH]c2ccc(-c3ccnc4[nH]c(CCN5CCCCC5)cc34)cc12 [Example 267, 5-(2-(2-(Piperidin-1-yl)ethyl)-1H-pyrrolo[2,3-b]pyridine-4-yl)-1H-indazol-3-amine]
26 | 16 | 10 |  |  | CN(C)CCCNCc1cc2c(-c3ccc4[nH]nc(N)c4c3)ccnc2[nH]1 [Example 258, N^1-((4-(3-amino-1H-indazol-5-yl)-1H-pyrrolo[2,3-b]pyridin-2-yl)methyl)-N^3,N^3-dimethylpropane-1,3-diamine]
27 | 22 | 2 |  |  | Nc1n[nH]c2ccc(-c3ccnc4[nH]c(CN5CCOCC5)cc34)cc12 [Example 262, 5-(2-(Morpholinomethyl)-1H-pyrrolo[2,3-b]pyridine-4-yl)-1H-indazol-3-amine]
